Source: PMC6481345, “A novel anti-melanoma SRC-family kinase inhibitor” (Oncotarget, 2019)
Where two headings read alike, the source gives them in different places.

Legend:
[1] = target: T1, FGR (Homo sapiens, UniProt P09769); experiment: Radioisotope filter activity assay, recombinant kinase; assay type: biochemical; details: 10 point dose response, 10 µM ATP
T1 construct: purchased Reaction Biology Corporation
Experimental: (§1) The effect of SAB298 on a panel of 36 recombinant kinases, was screed with the radioisotope filter binding assay employing 10 concentrations of the compound with 10 µM ATP (Reaction Biology Corporation, Malvern, PA). In addition, we tested the endogenous kinome response to SAB298 (0.05 µM, 0.5 µM and 5 µM) in lysates from two melanoma cell lines (YUSIV and YUSIK) employing the KiNativ® platform (ActivX Biosciences Inc., La Jolla, CA). KiNativ® is a robust, high performance mass spectrometry (LC-MS^2) assay that uses biotinylated probes to measure relevant changes in the affinity to the ATP-binding sites of 205 native kinases as a function of cellular context. We also validated SAB298 effect on the activity of SRC-family kinases by probing for phosphorylated Y416, the marker of activated SFKs, with anti-IEDNEpYTAR antibodies (also known as Y419, #2101, Cell Signaling Technology, Beverly, MA). In some cases the cells were incubated overnight with 20 µM proteasome inhibitor MG-132 (CAS 133407-82-6, Millipore Sigma, Burlington, MA) to rescue degradation.
Supplemntary Table 3: Radioisotope filter activity assay Tests for SAB298 target protein
*These are results from 10 point dose response test employed with 10 µM ATP. […]
SRC TRCN0000195339 3ʹUTR […]
YES TRCN0000001611 CDS […]
FYN TRCN0000003099 CDS […]
LY N TRCN0000230901 CDS […]

[2] = target: YES1 (Homo sapiens, UniProt P07947); experiment: KiNativ in situ kinase profiling in melanoma cell lysates; assay type: binding; design: the endogenous kinome response to SAB298 (0.05 µM, 0.5 µM and 5 µM) in lysates from two melanoma cell lines; host or cells: YUSIV melanoma cell lysate (not present in YUSIK); details: YES1 in YUSIV lysate; 3-point dose response
Chain of YES1 (P07947 whole entry): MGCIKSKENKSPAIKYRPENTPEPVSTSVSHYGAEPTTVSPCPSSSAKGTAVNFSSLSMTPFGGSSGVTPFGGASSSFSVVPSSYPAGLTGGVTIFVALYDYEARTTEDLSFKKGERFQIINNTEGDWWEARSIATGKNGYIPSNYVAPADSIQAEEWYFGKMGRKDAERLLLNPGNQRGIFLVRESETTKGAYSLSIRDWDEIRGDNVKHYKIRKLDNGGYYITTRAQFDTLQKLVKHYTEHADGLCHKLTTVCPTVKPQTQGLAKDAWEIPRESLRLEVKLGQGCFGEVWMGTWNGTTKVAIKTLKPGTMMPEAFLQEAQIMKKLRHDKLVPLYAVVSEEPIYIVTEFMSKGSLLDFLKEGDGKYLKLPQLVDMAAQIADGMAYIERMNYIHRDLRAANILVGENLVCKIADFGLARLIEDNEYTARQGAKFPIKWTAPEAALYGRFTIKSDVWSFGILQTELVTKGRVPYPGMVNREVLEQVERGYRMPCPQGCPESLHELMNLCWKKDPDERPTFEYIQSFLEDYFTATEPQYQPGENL
Experimental: as §1

[3] = test system: YUPEET melanoma cells; experiment: CellTiter-Glo Luminescent Cell Viability Assay; assay type: cell-based, human
Experimental: (§2) The melanoma cells were grown in OptiMEM (Invitrogen, Carlsbad, CA) supplemented with 5% fetal calf serum and antibiotics. The normal human melanocytes (NBMEL) were grown in medium supplemented with bFGF, IBMX and dbcAMP [32]. Most of the Yale melanoma cell lines were characterized by next-generation sequencing (Supplementary Table 2).
(§3) Cell proliferation was measured with the CellTiter-Glo® Luminescent Cell Viability Assay (Promega Corporation, Madison, WI). Melanoma cells were seeded in 96-well plates in triplicate or quadruplet wells, with increasing concentrations of kinase inhibitors for 72 hrs. The rate of proliferation was also tested after knockdown of different SRC-family kinases (SFK) with hairpin lentivirus shRNA as indicated. […] The statistical significance of synergism of response to drug combinations was evaluated by following Chou and Talalay algorithm. See also details in Supplementary Material.

[4] = test system: YUSEEP melanoma cells; experiment: CellTiter-Glo Luminescent Cell Viability Assay; assay type: cell-based, human; details: growth response
Experimental: as §2, §3

[5] = test system: 501 mel melanoma cells; experiment: CellTiter-Glo Luminescent Cell Viability Assay; assay type: cell-based, human; details: for IC50: Homo sapiens
Experimental: as §2, §3

[6] = test system: YUROB melanoma cells; experiment: CellTiter-Glo Luminescent Cell Viability Assay; assay type: cell-based, human
Experimental: as §2, §3

[7] = test system: YUSIT1 melanoma cells; experiment: CellTiter-Glo Luminescent Cell Viability Assay; assay type: cell-based, human
Experimental: as §2, §3

[8] = test system: YUKIM melanoma cells; experiment: CellTiter-Glo Luminescent Cell Viability Assay; assay type: cell-based, human
Experimental: as §2, §3

[9] = test system: YUGASP melanoma cells; experiment: CellTiter-Glo Luminescent Cell Viability Assay; assay type: cell-based, human; details: growth response
Experimental: as §2, §3

[10] = test system: YUSOC melanoma cells; experiment: CellTiter-Glo Luminescent Cell Viability Assay; assay type: cell-based, human; details: RAF1 T491I, NF1 null/RAC1 P29S
Experimental: as §2, §3

[11] = test system: YUSIK melanoma cells; experiment: CellTiter-Glo Luminescent Cell Viability Assay; assay type: cell-based, human
Experimental: as §2, §3

[12] = test system: YUSIV melanoma cells; experiment: CellTiter-Glo Luminescent Cell Viability Assay; assay type: cell-based, human
Experimental: as §2, §3

[13] = target: CSK (Homo sapiens, UniProt P41240); experiment: KiNativ in situ kinase profiling in melanoma cell lysates; assay type: binding; design: we tested the endogenous kinome response to SAB298; host or cells: YUSIV and YUSIK melanoma cell lysates; details: 3-point dose response
Chain of CSK (P41240 whole entry): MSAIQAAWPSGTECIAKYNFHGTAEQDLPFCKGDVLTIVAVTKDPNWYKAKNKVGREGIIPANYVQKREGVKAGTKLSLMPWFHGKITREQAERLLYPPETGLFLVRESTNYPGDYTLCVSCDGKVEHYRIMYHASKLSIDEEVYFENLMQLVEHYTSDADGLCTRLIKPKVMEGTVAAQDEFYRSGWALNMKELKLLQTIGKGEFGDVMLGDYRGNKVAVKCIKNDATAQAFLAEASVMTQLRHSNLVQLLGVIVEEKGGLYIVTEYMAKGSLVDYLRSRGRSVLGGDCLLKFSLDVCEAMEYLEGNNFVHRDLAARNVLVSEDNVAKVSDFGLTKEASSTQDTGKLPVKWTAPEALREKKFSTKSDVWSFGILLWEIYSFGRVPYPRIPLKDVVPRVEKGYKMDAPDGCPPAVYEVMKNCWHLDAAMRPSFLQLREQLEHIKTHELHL
Experimental: as §1

[14] = target: ERBB2 (Homo sapiens, UniProt P04626); experiment: as above; assay type: binding; design: we tested the endogenous kinome response to SAB298; host or cells: YUSIV and YUSIK melanoma cell lysates; details: for IC50: 3-point dose response
Chain of ERBB2 (P04626 23-1255): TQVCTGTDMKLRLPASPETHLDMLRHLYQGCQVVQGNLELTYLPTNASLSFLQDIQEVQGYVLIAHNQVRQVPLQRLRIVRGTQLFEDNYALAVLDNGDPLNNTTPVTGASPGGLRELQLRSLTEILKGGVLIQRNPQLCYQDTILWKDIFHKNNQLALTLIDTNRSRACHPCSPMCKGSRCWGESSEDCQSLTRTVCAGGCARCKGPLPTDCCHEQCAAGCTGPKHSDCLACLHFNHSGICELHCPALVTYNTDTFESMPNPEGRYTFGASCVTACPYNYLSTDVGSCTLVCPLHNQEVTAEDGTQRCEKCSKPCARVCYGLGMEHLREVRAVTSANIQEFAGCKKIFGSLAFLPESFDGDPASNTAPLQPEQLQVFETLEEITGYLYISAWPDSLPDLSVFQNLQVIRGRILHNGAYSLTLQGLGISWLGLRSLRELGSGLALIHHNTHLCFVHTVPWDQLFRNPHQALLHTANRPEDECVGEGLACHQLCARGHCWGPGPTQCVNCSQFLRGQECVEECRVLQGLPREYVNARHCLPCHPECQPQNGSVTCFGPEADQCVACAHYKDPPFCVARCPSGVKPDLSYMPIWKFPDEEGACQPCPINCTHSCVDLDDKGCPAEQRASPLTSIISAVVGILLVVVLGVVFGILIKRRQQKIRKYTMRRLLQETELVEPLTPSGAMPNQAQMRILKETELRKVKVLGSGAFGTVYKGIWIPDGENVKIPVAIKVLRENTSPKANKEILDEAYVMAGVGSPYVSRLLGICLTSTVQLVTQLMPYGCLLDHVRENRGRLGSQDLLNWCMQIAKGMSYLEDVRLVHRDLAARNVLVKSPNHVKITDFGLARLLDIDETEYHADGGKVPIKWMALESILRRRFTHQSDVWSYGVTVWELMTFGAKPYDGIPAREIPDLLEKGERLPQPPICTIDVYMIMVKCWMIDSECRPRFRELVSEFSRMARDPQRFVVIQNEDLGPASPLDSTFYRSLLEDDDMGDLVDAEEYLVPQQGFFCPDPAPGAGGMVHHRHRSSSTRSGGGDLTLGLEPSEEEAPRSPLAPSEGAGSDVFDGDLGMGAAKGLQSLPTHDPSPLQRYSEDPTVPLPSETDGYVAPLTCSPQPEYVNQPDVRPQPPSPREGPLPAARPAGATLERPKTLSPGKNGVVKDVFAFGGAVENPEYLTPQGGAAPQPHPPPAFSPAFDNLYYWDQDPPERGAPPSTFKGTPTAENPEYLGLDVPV
Experimental: as §1

[15] = target: ABL2 (Homo sapiens, UniProt P42684); experiment: as above; assay type: binding; design: we tested the endogenous kinome response to SAB298; host or cells: YUSIV and YUSIK melanoma cell lysates; details: 3-point dose response
Chain of ABL2 (P42684 whole entry): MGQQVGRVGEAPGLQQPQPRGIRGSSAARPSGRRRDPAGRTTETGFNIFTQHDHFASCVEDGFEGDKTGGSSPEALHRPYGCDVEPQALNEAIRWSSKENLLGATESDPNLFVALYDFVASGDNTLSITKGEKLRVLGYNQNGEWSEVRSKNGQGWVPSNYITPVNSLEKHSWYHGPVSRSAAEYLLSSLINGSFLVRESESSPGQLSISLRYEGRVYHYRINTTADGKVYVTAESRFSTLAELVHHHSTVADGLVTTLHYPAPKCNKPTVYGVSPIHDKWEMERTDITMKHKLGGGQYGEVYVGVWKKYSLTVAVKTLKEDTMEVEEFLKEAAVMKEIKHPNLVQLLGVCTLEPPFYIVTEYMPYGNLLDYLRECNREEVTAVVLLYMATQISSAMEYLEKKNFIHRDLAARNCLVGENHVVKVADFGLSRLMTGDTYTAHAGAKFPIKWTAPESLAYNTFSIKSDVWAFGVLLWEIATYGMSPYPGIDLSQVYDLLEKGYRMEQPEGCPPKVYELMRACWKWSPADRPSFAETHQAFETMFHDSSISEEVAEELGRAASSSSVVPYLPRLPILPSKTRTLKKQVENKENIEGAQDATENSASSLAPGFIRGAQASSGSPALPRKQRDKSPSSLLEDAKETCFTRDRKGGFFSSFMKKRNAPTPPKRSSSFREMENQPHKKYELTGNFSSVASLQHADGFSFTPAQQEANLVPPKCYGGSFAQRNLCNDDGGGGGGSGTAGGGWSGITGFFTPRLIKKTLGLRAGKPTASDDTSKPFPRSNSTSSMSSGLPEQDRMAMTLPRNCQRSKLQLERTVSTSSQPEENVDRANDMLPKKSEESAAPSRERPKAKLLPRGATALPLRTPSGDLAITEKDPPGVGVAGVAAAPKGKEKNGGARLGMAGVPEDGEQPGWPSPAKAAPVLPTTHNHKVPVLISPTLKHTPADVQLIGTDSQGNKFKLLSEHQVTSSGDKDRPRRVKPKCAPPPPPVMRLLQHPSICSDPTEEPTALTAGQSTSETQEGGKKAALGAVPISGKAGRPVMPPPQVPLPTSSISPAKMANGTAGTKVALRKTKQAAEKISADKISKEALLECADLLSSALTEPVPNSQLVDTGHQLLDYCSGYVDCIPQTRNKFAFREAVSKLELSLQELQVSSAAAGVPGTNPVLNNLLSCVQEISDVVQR
Experimental: as §1

T1 sequence (P09769 whole entry): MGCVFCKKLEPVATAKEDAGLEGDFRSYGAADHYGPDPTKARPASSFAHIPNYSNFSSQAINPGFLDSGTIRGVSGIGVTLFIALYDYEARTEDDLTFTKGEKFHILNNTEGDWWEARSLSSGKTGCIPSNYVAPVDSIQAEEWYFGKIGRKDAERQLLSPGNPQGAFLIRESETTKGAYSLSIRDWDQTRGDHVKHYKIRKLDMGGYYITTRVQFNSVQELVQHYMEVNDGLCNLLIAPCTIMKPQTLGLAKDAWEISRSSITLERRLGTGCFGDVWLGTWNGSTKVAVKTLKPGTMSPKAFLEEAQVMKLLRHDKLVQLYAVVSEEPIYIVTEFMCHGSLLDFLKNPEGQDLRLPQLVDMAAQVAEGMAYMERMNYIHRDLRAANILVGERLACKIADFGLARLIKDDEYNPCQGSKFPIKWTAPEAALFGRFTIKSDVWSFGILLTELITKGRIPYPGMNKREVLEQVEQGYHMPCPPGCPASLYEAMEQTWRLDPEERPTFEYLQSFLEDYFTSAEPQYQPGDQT

For `Nc1ncnc2c1c(-c1ccc(Oc3ccccc3)cc1)nn2C[C@@H]1SSC[C@@H]1O` [SAB298, (3S, 4S)-3-((4-amino-3-(4-phenoxyphenyl)-1H-pyrazolo[3,4-d]pyrimidin-1-yl)methyl)-1,2-dithiolan-4-ol], the IC50 [1] was 7.8 nM, the IC50 [2] was under 10 nM and the IC50 ([3]; Homo sapiens, BRAF V600E, cell viability, 72 hrs) was 55 nM. The AUC1 ([3]; growth response) was 672, the AUC2 ([3]; growth response) was 7 and the AUC1 [4] was 292. The AUC2 [4] was 40, the AUC1 ([5]; 501 mel, growth response) was 37 and the AUC2 ([5]; 501 mel, growth response) was 133. The IC50 ([5]; 501 mel BRAF V600E, Variation 2 (0 effect omitted), read-out: Dm (dose for median effect, median-effect equation)) was 3860 nM, the IC50 ([5]; 501 mel BRAFV600E, Variation 1 (0 effect coded 1E-6), read-out: Dm (dose for median effect, median-effect equation)) was 7150 nM and the IC50 ([5]; 72 h, 501 mel, BRAF V600E, cell viability, 72 hrs, read-out: IC50) was 551 nM. For the same compound, the IC50 ([6]; Homo sapiens, 72 h, YUROB, HRAS Q61K, cell viability, 72 hrs, read-out: IC50) was 696 nM, the IC50 ([6]; Homo sapiens, YUROB HRAS Q61K, Variation 2 (0 effect omitted), read-out: Dm (dose for median effect, median-effect equation)) was 1860 nM and the IC50 ([6]; Homo sapiens, YUROB HRASQ61K, Variation 1 (0 effect coded 1E-6), read-out: Dm (dose for median effect, median-effect equation)) was 5180 nM. The IC50 ([6]; YUROB, HRAS Q61K, cell viability, 72 hrs, read-out: IC50) was 1250 nM, the AUC1 ([6]; YUROB, growth response) was 148 and the AUC2 ([6]; YUROB, growth response) was 9. For the same compound, the IC50 ([7]; Homo sapiens, YUSIT1, BRAF V600K, cell viability, 72 hrs) was 238 nM, the AUC1 ([7]; YUSIT1, growth response) was 166 and the AUC2 ([7]; YUSIT1, growth response) was 32. The IC50 ([8]; Homo sapiens, NRAS Q61R, cell viability, 72 hrs) was 561 nM, the AUC1 ([8]; growth response) was 173 and the AUC2 ([8]; growth response) was 60. It also gave an AUC1 [9] of 119, an AUC2 [9] of 103 and an IC50 ([10]; Homo sapiens, 72 h) of 154 nM. It also gave an IC50 ([10]; 72 hrs) of 157 nM, an IC50 ([11]; Homo sapiens, 72 h, YUSIK, BRAF V600E, cell viability, 72 hrs, read-out: IC50) of 129 nM and an IC50 ([11]; Homo sapiens, YUSIK BRAF V600E, Variation 2 (0 effect omitted), read-out: Dm (dose for median effect, median-effect equation)) of 155 nM. For the same compound, the IC50 ([11]; Homo sapiens, YUSIK BRAFV600E, Variation 1 (0 effect coded 1E-6), read-out: Dm (dose for median effect, median-effect equation)) was 864 nM, the IC50 ([11]; YUSIK, BRAF V600E, cell viability, 72 hrs, read-out: IC50) was 141 nM and the AUC1 ([11]; YUSIK, growth response) was 540. It also gave an AUC2 ([11]; YUSIK, growth response) of 23, an IC50 ([12]; Homo sapiens, PDE8A-RAF1 fusion, cell viability, 72 hrs) of 81 nM and an AUC1 ([12]; growth response) of 656. For the same compound, the AUC2 ([12]; growth response) was 10, the IC50 ([13]; CSK in YUSIK lysate) was 910 nM and the IC50 ([13]; CSK in YUSIV lysate) was 420 nM. For the same compound, the “higher binding affinity in KiNativ assay compared to radioisotope filtration binding assay” value ([14]; ERBB2) was about 20 fold, the IC50 ([14]; ERBB2 in YUSIK lysate) was 530 nM and the IC50 ([14]; ERBB2 in YUSIV lysate) was 410 nM. The IC50 ([15]; ABL2 in YUSIK lysate) was 240 nM and the IC50 ([15]; ABL2 in YUSIV lysate) was 87 nM.
